What follows are compounds tested against human recombinant GABAA α5β3γ2 receptor (Homo sapiens (Human), UniProt P18507+P31644) (assay: Binding assay, [3H]Ro151788 displacement on membranes of HEK cells). Settings: 0.5 nM [3H]Ro151788, 60 minutes at 4° C., Cheng-Prusoff; read-out: hGABAA α5 Ki.
Procedure: The GABAA α5β3γ2 protein used for the receptor binding assay was derived from membranes produced from HEK cells (Millipore CYL3073) expressing the human recombinant GABAA α5β3γ2 receptor. Cells were stored and cultured in-house according to the instructions provided by the vendor (Millipor). Cell pellet was homogenized in 10 times modified Krebs Henseleit buffer (membrane preparation buffer): 20 mM Tris, 120 mM NaCl, 100 mM KCl, 25 mM CaCl2) and 25 mM MgCl2 pH=7.4 at 4° C. using Ultra Turrax (Janke&Kunkel) maximal speed for 15 seconds. The homogenate was centrifuged at 40,000 g for 30 minutes at 4° C. Supernatant was discarded and the resulting pellet was washed in membrane preparation buffer. Pellet was resuspended in membrane preparation buffer and aliquots of 1.4 mL ampulles were stored at −70° C. until use.
Receptor binding assays were performed in 96-well format in deep-well plates. For each 96-well plate one ampulle of membrane homogenate was thawed and diluted in binding buffer (50 mM Tris pH=7.4, 100 mM KCl) and 200 μL was dispensed into each well. Radioligand [^3H]Ro151788 (Perkin Elmer: NET757250UC) was prepared in binding buffer and added to each well in 50 μL volume to give final concentration of 0.5 nM. Test compounds in suitable concentration(s) were added in additional 50 μL. The final assay volume was 300 μL. Incubation was carried out for 60 minutes at 4° C. For non-specific binding 10 μM unlabeled diazepam was used. After incubation samples were filtered over UniFilter® GF/B™ using Filtermate Harvester (Perkin Elmer) and washed with 5×1 mL binding buffer. The plate was dried at 40° C. for an hour and 40 μL Microscint (Perkin Elmer) scintillation cocktail was added to each well. The plate was read in Microbeta (Perkin Elmer).
The specific radioligand binding (SB) was defined as the difference between total binding (Tot) and the non-specific binding (NSB). Results are expressed as a percent inhibition of specific binding obtained in the presence of compound of interest.
For IC50 and Ki determination a minimum of six drug concentrations in triplicate were used. […] Ki values (i.e. inhibition constants) were calculated using the Cheng-Prusoff equation Ki=IC50/[1+(L/KD)], where [L] is the radioligand concentration and KD the affinity of the labelled ligand for receptor. KD was determined from the Saturation analyses.

Sequence of human recombinant GABAA α5β3γ2 receptor (P31644 32-462): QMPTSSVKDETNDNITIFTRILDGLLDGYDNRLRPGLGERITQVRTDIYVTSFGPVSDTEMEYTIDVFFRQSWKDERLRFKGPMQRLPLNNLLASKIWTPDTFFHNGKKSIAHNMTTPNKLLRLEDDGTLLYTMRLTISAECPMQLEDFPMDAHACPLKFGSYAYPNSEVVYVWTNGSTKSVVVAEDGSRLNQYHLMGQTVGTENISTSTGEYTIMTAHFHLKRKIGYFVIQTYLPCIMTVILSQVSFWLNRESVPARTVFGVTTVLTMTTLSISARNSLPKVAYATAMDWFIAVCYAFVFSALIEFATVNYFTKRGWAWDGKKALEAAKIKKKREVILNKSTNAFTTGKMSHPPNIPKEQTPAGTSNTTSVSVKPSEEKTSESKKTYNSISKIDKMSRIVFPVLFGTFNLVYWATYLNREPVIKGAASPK
Sequence of human recombinant GABAA α5β3γ2 receptor (P28472 26-473 partner): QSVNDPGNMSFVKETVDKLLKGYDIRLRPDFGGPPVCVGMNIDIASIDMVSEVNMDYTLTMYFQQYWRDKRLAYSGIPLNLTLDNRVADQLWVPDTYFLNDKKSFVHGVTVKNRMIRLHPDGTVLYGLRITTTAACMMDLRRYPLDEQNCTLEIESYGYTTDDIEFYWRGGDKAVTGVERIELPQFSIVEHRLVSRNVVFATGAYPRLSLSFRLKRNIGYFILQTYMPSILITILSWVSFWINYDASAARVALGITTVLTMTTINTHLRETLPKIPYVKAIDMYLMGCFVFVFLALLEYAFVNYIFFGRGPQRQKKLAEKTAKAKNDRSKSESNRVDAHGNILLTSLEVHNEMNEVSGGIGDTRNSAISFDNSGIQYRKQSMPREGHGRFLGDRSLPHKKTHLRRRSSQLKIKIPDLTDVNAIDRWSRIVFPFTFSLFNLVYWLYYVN
Sequence of human recombinant GABAA α5β3γ2 receptor (P18507 40-475): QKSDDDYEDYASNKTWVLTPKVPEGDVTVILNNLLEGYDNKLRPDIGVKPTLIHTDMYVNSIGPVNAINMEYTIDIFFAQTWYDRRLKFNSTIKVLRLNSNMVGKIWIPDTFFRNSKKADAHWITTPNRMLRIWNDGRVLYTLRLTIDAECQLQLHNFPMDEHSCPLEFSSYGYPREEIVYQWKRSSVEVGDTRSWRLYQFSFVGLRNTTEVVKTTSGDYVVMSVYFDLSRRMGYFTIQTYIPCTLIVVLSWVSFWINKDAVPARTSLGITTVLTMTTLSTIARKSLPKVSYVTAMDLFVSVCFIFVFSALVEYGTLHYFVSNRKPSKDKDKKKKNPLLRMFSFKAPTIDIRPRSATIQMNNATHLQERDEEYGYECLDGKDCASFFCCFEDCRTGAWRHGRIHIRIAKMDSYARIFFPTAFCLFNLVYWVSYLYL

Row | SMILES | Ki [nM]
1 | Cc1nnn(-c2ccc(Cl)cc2)c1COc1ccc2c(n1)CCN(C(=O)[C@H]1CCOC1)C2 [Example 38, 2-{[1-(4-chlorophenyl)-4-methyl-1H-1,2,3-triazol-5-yl]methoxy}-6-[(3S)-oxolane-3-carbonyl]-5,6,7,8-tetrahydro-1,6-naphthyridine] | 18
2 | CCC(=O)N1CCc2nc(OCc3c(C)nnn3-c3ccc(F)cc3)ccc2C1 [Example 24, 1-(2-{[1-(4-fluorophenyl)-4-methyl-1H-1,2,3-triazol-5-yl]methoxy}-5,6,7,8-tetrahydro-1,6-naphthyridin-6-yl)propan-1-one] | 46
3 | Cc1nnn(-c2ccc(F)cc2)c1COc1ccc2c(n1)CCN(C(=O)c1cccc(Cl)c1)C2 [Example 27, 6-(3-chlorobenzoyl)-2-{[1-(4-fluorophenyl)-4-methyl-1H-1,2,3-triazol-5-yl]methoxy}-5,6,7,8-tetrahydro-1,6-naphthyridine] | 137
4 | Cn1nnc(-c2ccc(F)cc2)c1COc1ccc2c(n1)CN(C(=O)CF)C2 [Example 70, 2-fluoro-1-(2-{[4-(4-fluorophenyl)-1-methyl-1H-1,2,3-triazol-5-yl]methoxy}-5,7-dihydro-6H-pyrrolo[3,4-b]pyridin-6-yl)ethanone] | 9.2
5 | Cc1onc(-c2ccc(F)cc2)c1COc1ccc2c(n1)CCN(C(=O)C1CCC1)C2 [Example 4, 6-cyclobutanecarbonyl-2-{[3-(4-fluorophenyl)-5-methyl-1,2-oxazol-4-yl]methoxy}-5,6,7,8-tetrahydro-1,6-naphthyridine] | 16
6 | Cc1onc(-c2ccc(F)cc2)c1COc1ccc2c(n1)CCN(C(=O)c1ccn(C)c1)C2 [Example 11, 2-{[3-(4-fluorophenyl)-5-methyl-1,2-oxazol-4-yl]methoxy}-6-(1-methyl-1H-pyrrole-3-carbonyl)-5,6,7,8-tetrahydro-1,6-naphthyridine] | 11
7 | CC(=O)N1CCc2ccc(OCc3c(C)nnn3-c3ccc(F)cc3)nc2C1 [Example 34, 1-(2-{[1-(4-fluorophenyl)-4-methyl-1H-1,2,3-triazol-5-yl]methoxy}-5,6,7,8-tetrahydro-1,7-naphthyridin-7-yl)ethan-1-one] | 112
8 | Cc1onc(-c2ccc(F)cc2)c1COc1ccc2c(n1)CCN(C(=O)c1ccno1)C2 [Example 3, 2-{[3-(4-fluorophenyl)-5-methyl-1,2-oxazol-4-yl]methoxy}-6-(1,2-oxazole-5-carbonyl)-5,6,7,8-tetrahydro-1,6-naphthyridine] | 5
9 | Cc1onc(-c2ccc(F)cc2)c1COc1ccc2c(n1)CCN(C(=O)C(F)(F)F)C2 [Example 12, 2,2,2-trifluoro-1-(2-{[3-(4-fluorophenyl)-5-methyl-1,2-oxazol-4-yl]methoxy}-5,6,7,8-tetrahydro-1,6-naphthyridin-6-yl)ethan-1-one] | 14
10 | Cc1nnn(-c2ccc(F)cc2)c1COc1ccc2c(n1)CCN(C(=O)c1ccno1)C2 [Example 20, 2-{[1-(4-fluorophenyl)-4-methyl-1H-1,2,3-triazol-5-yl]methoxy}-6-(1,2-oxazole-5-carbonyl)-5,6,7,8-tetrahydro-1,6-naphthyridine] | 24
11 | Cc1nnn(-c2ccc(F)cc2)c1COc1ccc2c(n1)CCN(C(=O)c1cccnc1)C2 [Example 39, 2-{[1-(4-fluorophenyl)-4-methyl-1H-1,2,3-triazol-5-yl]methoxy}-6-(pyridine-3-carbonyl)-5,6,7,8-tetrahydro-1,6-naphthyridine] | 24
12 | Cc1nnn(-c2ccc(F)cc2)c1COc1ccc2c(n1)CCN(C(=O)C1(C)CCOC1)C2 (stereo not drawn) [Example 31, 2-{[1-(4-fluorophenyl)-4-methyl-1H-1,2,3-triazol-5-yl]methoxy}-6-(3-methyloxolane-3-carbonyl)-5,6,7,8-tetrahydro-1,6-naphthyridine] | 44
13 | Cc1nnn(-c2ccc(F)cc2)c1COc1ccc2c(n1)CCN(C(=O)C1CC(=O)N(C)C1)C2 (stereo not drawn) [Example 21, 4-(2-{[1-(4-fluorophenyl)-4-methyl-1H-1,2,3-triazol-5-yl]methoxy}-5,6,7,8-tetrahydro-1,6-naphthyridine-6-carbonyl)-1-methylpyrrolidin-2-one] | 35

The remaining lines, values ahead:

Row | Ki [nM] | SMILES
14 | 13 | Cc1nnn(-c2ccc(F)cc2)c1COc1ccc2c(n1)CN(C(=O)C1CCOCC1)C2 [Example 55, 1-(4-fluorophenyl)-4-methyl-5-({[6-(oxane-4-carbonyl)-5H,6H,7H-pyrrolo[3,4-b]pyridin-2-yl]oxy}methyl)-1H-1,2,3-triazole]
15 | 54 | Cc1nnn(-c2ccc(F)cc2)c1COc1ccc2c(n1)CCN(C(=O)C1CC(=O)N(C(C)C)C1)C2 (stereo not drawn) [Example 44, 4-(2-{[1-(4-fluorophenyl)-4-methyl-1H-1,2,3-triazol-5-yl]methoxy}-5,6,7,8-tetrahydro-1,6-naphthyridine-6-carbonyl)-1-(propan-2-yl)pyrrolidin-2-one]
16 | 28 | Cc1nnn(-c2ccc(F)cc2)c1COc1ccc2c(n1)CN(C(=O)c1cccnc1)C2 [Example 65, 3-(2-{[1-(4-fluorophenyl)-4-methyl-1H-1,2,3-triazol-5-yl]methoxy}-5H,6H,7H-pyrrolo[3,4-b]pyridine-6-carbonyl)pyridine]
17 | 5.7 | Cc1nnn(-c2ccc(F)cc2)c1COc1ccc2c(n1)CN(C(=O)C1CCOC1)C2 (stereo not drawn) [Example 62, 1-(4-fluorophenyl)-4-methyl-5-({[6-(oxolane-3-carbonyl)-5H,6H,7H-pyrrolo[3,4-b]pyridin-2-yl]oxy}methyl)-1H-1,2,3-triazole]
18 | 108 | Cc1nnn(-c2ccc(F)cc2)c1COc1ccc2c(n1)CCN(C(=O)Nc1ccccc1Cl)C2 [Example 79, N-(2-chlorophenyl)-2-{[1-(4-fluorophenyl)-4-methyl-1H-1,2,3-triazol-5-yl]methoxy}-5,6,7,8-tetrahydro-1,6-naphthyridine-6-carboxamide]
19 | 3.8 | Cc1onc(-c2ccc(F)cc2)c1COc1ccc2c(n1)CCN(C(=O)N(C)C)C2 [Example 83, 2-{[3-(4-fluorophenyl)-5-methyl-1,2-oxazol-4-yl]methoxy}-N,N-dimethyl-5,6,7,8-tetrahydro-1,6-naphthyridine-6-carboxamide]
20 | 31 | Cc1nnn(-c2ccc(F)cc2)c1COc1ccc2c(n1)CN(C(=O)C(C)(C)C)C2 [Example 59, 1-(2-{[1-(4-fluorophenyl)-4-methyl-1H-1,2,3-triazol-5-yl]methoxy}-5H,6H,7H-pyrrolo[3,4-b]pyridin-6-yl)-2,2-dimethylpropan-1-one]
21 | 8.9 | Cc1onc(-c2ccc(F)cc2)c1COc1ccc2c(n1)CCN(C(=O)N1CCCC1)C2 [Example 84, 2-{[3-(4-fluorophenyl)-5-methyl-1,2-oxazol-4-yl]methoxy}-6-(pyrrolidine-1-carbonyl)-5,6,7,8-tetrahydro-1,6-naphthyridine]
22 | 13 | Cc1nnn(-c2ccc(F)cc2)c1COc1ccc2c(n1)CN(C(=O)C(C)C)C2 [Example 58, 1-(2-{[1-(4-fluorophenyl)-4-methyl-1H-1,2,3-triazol-5-yl]methoxy}-5H,6H,7H-pyrrolo[3,4-b]pyridin-6-yl)-2-methylpropan-1-one]
23 | 1.2 | Cc1onc(-c2ccc(F)cc2)c1COc1ccc2c(n1)CN(C(=O)CS(C)(=O)=O)C2 [Example 49, 1-(2-{[3-(4-fluorophenyl)-5-methyl-1,2-oxazol-4-yl]methoxy}-5H,6H,7H-pyrrolo[3,4-b]pyridin-6-yl)-2-methanesulfonylethan-1-one]
24 | 1.2 | CC(=O)N1Cc2ccc(OCc3c(C)nnn3-c3ccc(Cl)cc3)nc2C1 [Example 60, 1-(2-{[1-(4-chlorophenyl)-4-methyl-1H-1,2,3-triazol-5-yl]methoxy}-5,7-dihydro-6H-pyrrolo[3,4-b]pyridin-6-yl)ethanone]
25 | 25 | CCC(=O)N1Cc2ccc(OCc3c(-c4ccc(F)cc4)nnn3C)nc2C1 [Example 69, 1-(2-{[4-(4-fluorophenyl)-1-methyl-1H-1,2,3-triazol-5-yl]methoxy}-5,7-dihydro-6H-pyrrolo[3,4-b]pyridin-6-yl)propan-1-one]
26 | 56 | Cn1nnc(-c2ccc(F)cc2)c1COc1ccc2c(n1)CN(C(=O)C1CCOC1)C2 (stereo not drawn) [Example 71, 4-(4-fluorophenyl)-1-methyl-5-({[6-(oxolane-3-carbonyl)-5H,6H,7H-pyrrolo[3,4-b]pyridin-2-yl]oxy}methyl)-1H-1,2,3-triazole]
27 | 0.8 | CC(=O)N1Cc2ccc(OCc3c(-c4ccc(F)cc4)noc3C)nc2C1 [Example 50, 1-(2-{[3-(4-fluorophenyl)-5-methyl-1,2-oxazol-4-yl]methoxy}-5,7-dihydro-6H-pyrrolo[3,4-b]pyridin-6-yl)ethanone]
